Test results from patent US20020077345A1, “Cis-substituted aminocycloalkylpyrrolidine derivatives” (priority 1997, published 2002).
Values after ≈ are worked out from the molar mass of the structure shown. Counter-ions that a name gives are not always drawn. Like-named read-outs stand apart in the source and are kept apart here. Marks after values point to notes of the source that are not given here.

Key:
[1] = test system: S. aureus, 870307; assay: Antimicrobial activity (MIC), standard method of Japan Society of Chemotherapy; type: cell-based
Procedure: (§1) To further illustrate the present invention in greater detail, and not by way of limitation, the following Examples will be given. The antimicrobial activity of each target compound was evaluated in accordance with the standard method specified by Japan Society of Chemotherapy and expressed in MIC (μg/ml).

[2] = test system: Pr. vulgaris, 08601; assay: as above; type: cell-based
Procedure: as §1

[3] = test system: S. epidermidis, 56500; assay: as above; type: cell-based
Procedure: as §1

[4] = test system: Pr. mirabilis, IFO-3849; assay: as above; type: cell-based
Procedure: as §1

[5] = test system: Ps. aeruginosa, 32121; assay: as above; type: cell-based
Procedure: as §1

[6] = test system: Str. faecalis, ATCC-19433; assay: as above; type: cell-based
Procedure: as §1

[7] = test system: S. aureus, 209P; assay: as above; type: cell-based
Procedure: as §1

[8] = test system: Ps. aeruginosa, 32104; assay: as above; type: cell-based
Procedure: as §1

[9] = test system: X. maltophilia, 11D-1275; assay: as above; type: cell-based
Procedure: as §1

[10] = test system: Str. pyogenes, G-36; assay: as above; type: cell-based
Procedure: as §1

[11] = test system: Ser. marcescens, 10100; assay: as above; type: cell-based
Procedure: as §1

[12] = test system: S. flexneli, 2A 5503; assay: as above; type: cell-based
Procedure: as §1

[13] = test system: E. coli, NIHJ; assay: as above; type: cell-based
Procedure: as §1

[14] = test system: Slc:ddy male mice; assay: Acute toxicity, intravenous administration to mice; type: in vivo; settings: deaths/mice dosed
Procedure: A solution of 5-amino-7-[4-(R)-(1-aminocyclopropyl)-3-(S)-fluoro-1-pyrrolidinyl]-6-fluoro-1-[2-(S)-fluoro-1-(R)-cyclopropyl]-1,4-dihydro-8-methyl-4-oxoquinoline-3-carboxylic acid (abbreviated as cis) hydrochloride (Example 2) or 5-amino-7-[4-(R)-(1-aminocyclopropyl)-3-(R)-fluoro-1-pyrrolidinyl]-6-fluoro-1-(2-(S)-fluoro-1-(R)-cyclopropyl]-1,4-dihydro-8-methyl-4-oxoquinoline-3-carboxylic acid (abbreviated as trans) hydrochloride in distilled water for injection was administered intravenously to Slc:ddy male mice (five mice per group) and the symptoms are observed. The results are as follows.

[15] = Staphylococcus aureus, read-out: MIC
[16] = Proteus vulgaris, read-out: MIC
[17] = Staphylococcus epidermidis, read-out: MIC
[18] = Proteus mirabilis, IFO3849, read-out: MIC
[19] = Pseudomonas aeruginosa, read-out: MIC
[20] = Enterococcus faecalis, ATCC19433, read-out: MIC
[21] = Stenotrophomonas maltophilia, 11D1275, read-out: MIC
[22] = Streptococcus pyogenes, G36, read-out: MIC
[23] = Serratia marcescens, read-out: MIC
[24] = Escherichia coli, read-out: MIC
[25] = 150 mg/kg intravenously, five per group

| Structure (SMILES) | MIC [1, 15] [mg/L] | MIC [2, 16] [mg/L] | MIC [3, 17] [mg/L] | MIC [4, 18] [mg/L] | MIC [5, 19] [mg/L] | MIC [6, 20] [mg/L] | MIC [7, 15] [mg/L] | MIC [8, 19] [mg/L] | MIC [9, 21] [mg/L] | MIC [10, 22] [mg/L] | MIC [11, 23] [mg/L] | MIC [12] [mg/L] | MIC [13, 24] [mg/L] | Number of death [14, 25] | further results |
| --- | --- | --- | --- | --- | --- | --- | --- | --- | --- | --- | --- | --- | --- | --- | --- |
| Cc1c(N2C[C@@H](F)[C@@H](C3(N)CC3)C2)c(F)c(N)c2c(=O)c(C(=O)O)cn([C@@H]3C[C@@H]3F)c12 [Example 2, 5-Amino-7-[4-(R)-(1-aminocyclopropyl)-3-(S)-fluoro-1-pyrrolidinyl]-6-fluoro-1-[2-(S)-fluoro-1-(R)-cyclopropyl1-1,4-dihydro-8-methyl-4-oxoquinoline-3-carboxylic acid hydrochloride] | 0.025 | 0.013 | ≤ 0.003 | 0.025 | 0.05 | 0.025 | ≤ 0.003 | 0.1 | 0.05 | ≤ 0.003 | 0.05 | ≤ 0.003 | ≤ 0.003 | 0/5 |  |
| Cc1c(N2CC(F)[C@@H](C3(N)CCC3)C2)c(F)c(N)c2c(=O)c(C(=O)O)cn(C3CC3F)c12 (single isomer, unassigned; isomer b) [Example 9] |  |  |  |  |  |  |  |  |  |  |  |  |  | same result |  |
| C[C@H]1COc2c(N3C[C@@H](F)[C@@H](C4(N)CC4)C3)c(F)c(N)c3c(=O)c(C(=O)O)cn1c23 [Example 8, 8-Amino-10-[4-(R)-(1-aminocyclopropyl)-3-(S)-fluoro-1-pyrrolidinyl]-9-fluoro-2,3-dihydro-3-(S)-methyl-7-oxo-7H-pyrido[1,2,3-de][1,4]benzoxazine-6-carboxylic acid] | 0.2 (≈ 0.476 µM) | 0.1 (≈ 0.238 µM) | 0.013 (≈ 0.0309 µM) | 0.1 (≈ 0.238 µM) | 0.2 (≈ 0.476 µM) | 0.05 (≈ 0.119 µM) | 0.006 (≈ 0.0143 µM) | 0.39 (≈ 0.928 µM) | 0.39 (≈ 0.928 µM) | 0.025 (≈ 0.0595 µM) | 0.2 (≈ 0.476 µM) | 0.013 (≈ 0.0309 µM) | 0.006 (≈ 0.0143 µM) | same result |  |
| COc1c(N2C[C@@H](F)[C@@H](C3(N)CC3)C2)c(F)c(N)c2c(=O)c(C(=O)O)cn([C@@H]3C[C@@H]3F)c12 [Example 3] | 0.025 (≈ 0.0553 µM) | 0.05 (≈ 0.111 µM) | 0.006 (≈ 0.0133 µM) | 0.1 (≈ 0.221 µM) | 0.2 (≈ 0.442 µM) | 0.05 (≈ 0.111 µM) | ≤ 0.003 | 0.39 (≈ 0.862 µM) | 0.2 (≈ 0.442 µM) | 0.013 (≈ 0.0287 µM) | 0.2 (≈ 0.442 µM) | 0.006 (≈ 0.0133 µM) | 0.006 (≈ 0.0133 µM) | same result |  |
| Cc1c(N2C[C@H](F)[C@@H](C3(N)CC3)C2)c(F)c(N)c2c(=O)c(C(=O)O)cn([C@@H]3C[C@@H]3F)c12 [trans, 5-amino-7-[4-(R)-(1-aminocyclopropyl)-3-(R)-fluoro-1-pyrrolidinyl]-6-fluoro-1-(2-(S)-fluoro-1-(R)-cyclopropyl]-1,4-dihydro-8-methyl-4-oxoquinoline-3-carboxylic acid, reference compound] |  |  |  |  |  |  |  |  |  |  |  |  |  | 2/2* | Number of death ([14]; 50 mg/kg intravenously, five per group): 0/5; Number of death ([14]; 100 mg/kg intravenously, test stopped at second death): 2/2* |
| C[C@H]1COc2c(N3C[C@@H](F)[C@@H](C4(N)CC4)C3)c(F)cc3c(=O)c(C(=O)O)cn1c23.Cl [Example 6, 10-[4-(R)-(1-Aminocyclopropyl)-3-(S)-fluoro-1-pyrrolidinyl]-9-fluoro-2,3-dihydro-3-(S)-methyl-7-oxo-7H-pyrido[1,2,3-de][1,4]benzoxazine-6-carboxylic acid hydrochloride] | 0.2 | 0.025 | 0.025 | 0.1 | 0.1 | 0.05 | 0.006 | 0.39 | 0.39 | 0.01 | 0.1 | 0.01 | 0.01 |  |  |
| C[C@H]1COc2c(N3C[C@@H](F)[C@@H](C4(N)CC4)C3)c(F)cc3c(=O)c(C(=O)O)cn1c23 [Example 4, 10-[4-(R)-(1-Aminocyclopropyl)-3-(S)-fluoro-1-pyrrolidinyl]-9-fluoro-2,3-dihydro-3-(S)-methyl-7-oxo-7H-pyrido[1,2,3-de][1,4]benzoxazine-6-carboxylic acid] |  |  |  |  |  |  |  |  |  |  |  |  |  | same result |  |
| COc1c(N2C[C@@H](F)[C@@H](C3(N)CC3)C2)c(F)cc2c(=O)c(C(=O)O)cn([C@@H]3C[C@@H]3F)c12 [Example 5, 7-[4-(R)-(1-Aminocyclopropyl)-3-(S)-fluoro-1-pyrrolidinyl]-6-fluoro-1-[2-(S)-fluoro-1-(R)-cycloproyyl]-1,4-dihydro-8-methoxy-4-oxoquinoline-3-carboxylic acid] |  |  |  |  |  |  |  |  |  |  |  |  |  | same result | MIC [1]: 0.025 mg/L (≈ 0.0572 µM); MIC [2]: 0.006 mg/L (≈ 0.0137 µM); MIC [3]: 0.013 mg/L (≈ 0.0297 µM); MIC [4]: 0.05 mg/L (≈ 0.114 µM); MIC [5]: 0.10 mg/L (≈ 0.229 µM); MIC [6]: 0.025 mg/L (≈ 0.0572 µM); MIC [7]: ≦0.003 μg/ml; MIC [8]: 0.20 mg/L (≈ 0.457 µM); MIC [9]: 0.20 mg/L (≈ 0.457 µM); MIC [10]: 0.006 mg/L (≈ 0.0137 µM); MIC [11]: 0.10 mg/L (≈ 0.229 µM); MIC ([12]; S. flexneli, 2A 5503): 0.006 mg/L (≈ 0.0137 µM); MIC [13]: ≦0.003 μg/ml |
| Cc1c(N2CC(CO)C(C3(N)CC3)C2)c(F)c(N)c2c(=O)c(C(=O)O)cn(C3CC3)c12 (stereo not drawn) [Example 1, 5-Amino-7-[cis-4-(1-aminocycloproiyl)-3-hydroxymethyl-1-pyrrolidinyl]-1-cyclopropyl-6-fluoro-1,4-dihydro-8-methyl-4-oxoquinoline-3-carboxylic acid] |  |  |  |  |  |  |  |  |  |  |  |  |  | same result |  |
